The subject of the assay is Escherichia coli (ATCC25922 strain). Briefly: antimicrobial susceptibility test by an ATP method (ATP luminescence), E. coli. The assay is classed as cell-based. To be noted: for RLU value as compared with that at ampicillin 0 μg/mL: plateau after 2 hours. An excerpt: In the Example, the amount of luminescence is expressed by the integration of the 60-sec photon count, and the unit is the amount of luminescence (a.u.). Since the amount of luminescence and the amount of ATP are in a proportional relationship, the increase in the amount of luminescence and the increase in the amount of ATP are to be expressed with the same implications.
Benzalkonium chloride was used as an extraction liquid, and Lucifer HS set (Kikkoman) was used as a luminescence reagent.
First, H. influenzae was cultured one night on a chocolate agar medium under a carbon dioxide gas atmosphere of 5 to 10%, and on the next day, the colony was suspended in a Mueller-Hinton (hereinafter referred to as MH) medium to produce a bacterial suspension that was prepared to 0.5 McFarland. Next, in a plate in which 50 μL each of an MH medium with the antibody of the two-fold concentration of the final concentration was previously dispensed, 50 μL each of a bacterial suspension diluted 500-fold with the MH medium was dispensed to provide an AST panel.
The first plate 21 and the second plate 22 were joined via the joint portion 23. The temperature of the ATP examination culture plate 12 was kept at 37° C. by the heater 11 and after a certain period of time, 10 μL of the bacterial culture solution of H. influenzae was dispensed from the culture vessel in the first plate 21 into the reaction vessel in the second plate 22 in which the gas atmosphere was previously prepared to 5 to 10% carbon dioxide. Subsequently, 10 μL of the extraction liquid was dispensed from the extraction liquid holding part 43 into the reaction vessel, and then 50 μL of the luminescence reagent was dispensed from the luminescence reagent holding part 46 into the reaction vessel.
After dispensing the luminescence reagent, the amount of luminescence in the reaction vessel was detected by the optical detector 13. In the optical detector 13, photo-counting was performed for 1 minute, and the detected amount of luminescence RLU (relative light unit) was used as a measure of the amount of ATP.
Example 2 was conducted in the same manner as in Example 1, except that Escherichia coli (ATCC25922 strain, hereinunder, E. coli) was used as bacterial cells, ampicillin was used as an antibody, and the gas atmosphere in the culture solution holding part 47 and the reaction vessel 44 of the ATP examination culture plate 21 was an air atmosphere. The antibody (ampicillin) concentration was 0, 2, 4, and 8 μg/mL. […] When the ampicillin concentration was 0 μg/mL, RLU increased in an exponential manner from the start of the culture until 4 hours, and thereafter ran at a constant value. […] On the other hand, when the ampicillin concentration was 4 μg/mL and 8 μg/mL, RLU increased from the start of the culture until 2 hours and thereafter ran at a constant value. The RLU value was as low as about 1/20 as compared with that at an ampicillin concentration of 0 μg/mL, and it can be seen that the growth of E. coli was suppressed by the action of ampicillin.

SMILES strings stand for the structures.

For `CC1(C)S[C@@H]2[C@H](NC(=O)[C@H](N)c3ccccc3)C(=O)N2[C@H]1C(=O)O` [ampicillin], the “susceptibility determination of E. coli” value by setting is: (ampicillin 2 μg/mL) “resistant”; (ampicillin 4 μg/mL) “has sensitivity”; (ampicillin 8 μg/mL) “has sensitivity”. For the setting “ampicillin 2 μg/mL, air atmosphere, FIG. 10, 0 μg/mL: exponential increase until 4 hours, then constant”, the “RLU time course compared with ampicillin 0 μg/mL” value is on record as “a similar trend was shown”. Further, the “RLU value as compared with that at ampicillin 0 μg/mL” value is, setting by setting: (ampicillin 4 μg/mL, air atmosphere, FIG. 10) “about 1/20”; (ampicillin 8 μg/mL, air atmosphere, FIG. 10) “about 1/20”. Further, the “concentration at which E. coli has sensitivity” value (tested 0, 2, 4 and 8 μg/mL, ATP luminescence) was at least 4 µg/mL.

The values are drawn from patent US10323266B2, “Antimicrobial susceptibility testing device, antimicrobial susceptibility testing kit, and antimicrobial susceptibility testing method” (Hitachi, Ltd., priority 2015, dated 2019).
